Key:
Type in all cases: in vivo
[1] = tested on: Cirsium arvense (Canadian thistle); assay: Greenhouse postemergence herbicidal effect, Canadian thistle (CIRAR); conditions: 20-22 d
Text: (§1) Greenhouse Trial Methodology—Evaluation of Postemergence Herbicidal Effect
(§2) Seeds of the desired test plant species were planted in a 90:10% v/v (volume/volume) mixture of PRO-MIX® BX (Premier Tech Horticulture, Quakertown, Pa., USA) and PROFILE® GREENS GRADE™ (Profile Products LLC, Buffalo Grove, Ill., USA) planting mixture, which typically has a pH of 5.2 to 6.2 and an organic matter content of at least 50 percent, in plastic pots with a surface area of 103.2 square centimeters (cm^2). In some aspects, to ensure good germination and healthy plants, a fungicide treatment and/or other chemical or physical treatment was applied. The plants were grown for 7-36 days (d) in a greenhouse with an approximate 14-hour (h) photo-period which was maintained at about 23° C. during the day and 22° C. during the night. Nutrients and water were added on a regular basis and supplemental lighting was provided with overhead metal halide 1000-Watt lamps as necessary. The plants were employed for testing when they reached the second or third true leaf stage.
(§3) Emulsifiable concentrates of each of each pyridine carboxylate herbicide (Compound A or Compound B) were prepared at 100 grams acid equivalent per liter (g ae/L). The emulsifiable concentrates also included a safener, cloquintocet-mexyl, at 120 grams active ingredient per liter (g ai/L). An aliquot of each emulsifiable concentrate was placed in a 25 mL glass vial and diluted with an aqueous mixture of 1.25% (v/v) ACTIROB® B esterified rapeseed oil (Bayer Crop Science, Research Triangle Park, N.C., USA) or MSO® Concentrate with LECI-TECH® methylated soybean oil (Loveland Products, Loveland, Colo., USA) to obtain concentrated stock solutions at the highest application rate for each herbicide, based upon a 12 milliliter (mL) application volume at a rate of 187 liters per hectare (L/ha). The concentrated stock solutions were further diluted with an aqueous mixture of 1.25% v/v ACTIROB® B or MSO® Concentrate with LECI-TECH® to obtain stock solutions at reduced application rates for each herbicide. Spray solutions of the herbicide combinations (Compound A or Compound B plus glyphosate or glufosinate) were prepared by adding weighed amounts or aliquots of the glyphosate or glufosinate to the stock solutions of Compound A or Compound B to form 12-mL spray solutions in two-way combinations.
(§4) The spray solutions were applied to the plant material with an overhead Mandel track sprayer equipped with 8002E nozzles calibrated to deliver 187 L/ha over an application area of 0.503 square meters (m^2) at a spray height of 18 inches (43 centimeters (cm)) above the average plant canopy. Control plants were sprayed in the same manner with the solvent blank. All pyridine carboxylate herbicide (component a) application rates are given as “g ae/ha” and all glyphosate or glufosinate (component b) application rates are given as “g ai/ha.”
(§5) The treated plants and control plants were placed in a greenhouse as described above and watered by sub-irrigation to prevent wash-off of the test compounds. After 20-22 d, the condition of the test plants as compared with that of the control plants was determined visually and scored on a scale of 0 to 100 percent where 0 corresponds to no injury and 100 corresponds to complete kill.

[2] = tested on: Chenopodium album L. (common lambsquarters); assay: Greenhouse postemergence herbicidal effect, common lambsquarters (CHEAL); conditions: 20-22 d
Text: as §1, §2, §3, §4, §5

[3] = tested on: Setaria faberi (giant foxtail); assay: Greenhouse postemergence herbicidal effect, giant foxtail (SETFA); conditions: 20-22 d
Text: as §1, §2, §3, §4, §5

[4] = tested on: Viola tricolor (wild pansy); assay: Greenhouse postemergence herbicidal effect, wild pansy (VIOTR); conditions: Example 4, 20-22 d
Text: as §1, §2, §3, §4, §5

[5] = tested on: Polygonum convolvulus (wild buckwheat); assay: Greenhouse postemergence herbicidal effect, wild buckwheat (POLCO); conditions: 20-22 d
Text: as §1, §2, §3, §4, §5

[6] = tested on: Brassica napus (spring rape); assay: Greenhouse postemergence herbicidal effect, spring rape (BRSNN); conditions: 20-22 d
Text: as §1, §2, §3, §4, §5

Kochia scoparia (kochia) = assay: Greenhouse postemergence herbicidal effect, kochia (KCHSC); conditions: 20-22 d
Text: as §1, §2, §3, §4, §5

[7] = tested on: Abutilon theophrasti (velvetleaf); assay: Greenhouse postemergence herbicidal effect, velvetleaf (ABUTH); conditions: Example 4, 20-22 d
Text: as §1, §2
Emulsifiable concentrates of each of each pyridine carboxylate herbicide (Compound A or Compound B) were prepared at 100 grams acid equivalent per liter (g ae/L). The emulsifiable concentrates also included a safener, cloquintocet-mexyl, at 120 grams active ingredient per liter (g ai/L). […]
as §5

[8] = tested on: Salsola kali (Russian thistle); assay: Greenhouse postemergence herbicidal effect, Russian thistle (SASKR); conditions: 20-22 d
Text: as §1, §2, §3, §4, §5

[9] = tested on: Sinapis arvensis (wild mustard); assay: Greenhouse postemergence herbicidal effect, wild mustard (SINAR); conditions: 20-22 d
Text: as §1, §2, §3, §4, §5

[10] = tested on: Triticum aestivum (spring wheat); assay: Greenhouse postemergence phytotoxicity on crop, spring wheat (TRZAS); conditions: 20-22 d
Text: as §1, §2, §3, §4, §5

[11] = tested on: Matricaria chamomilla (wild chamomile); assay: Greenhouse postemergence herbicidal effect, wild chamomile (MATCH); conditions: 20-22 d
Text: as §1, §2, §3, §4, §5

[12] = tested on: Hordeum vulgare (spring barley); assay: Greenhouse postemergence phytotoxicity on crop, spring barley (HORVS); conditions: 20-22 d
Text: as §1, §2, §3, §4, §5

[13] = tested on: Amaranthus retroflexus (pigweed); assay: Greenhouse postemergence herbicidal effect, pigweed (AMARE); conditions: 20-22 d
Text: as §1, §2, §3, §4, §5

[14] = tested on: Brassica napus (winter rape); assay: Greenhouse postemergence herbicidal effect, winter rape (BRSNW); conditions: 20-22 d
Text: as §1, §2, §3, §4, §5

[15] = Example 3, Compound B 7.5 g ae/ha alone
[16] = Example 3, Compound B 10 g ae/ha alone
[17] = Example 4, Compound B 7.5 g ae/ha alone
[18] = Example 4, Compound B 10 g ae/ha alone
[19] = Example 1, Glyphosate 210 g ai/ha alone
[20] = Example 2, Glyphosate 420 g ai/ha alone
[21] = Example 3, Glyphosate 210 g ai/ha alone

C#CCOC(=O)c1nc(-c2ccc3cc[nH]c3c2F)c(F)c(N)c1Cl [Compound B, propargyl 4-amino-3-chloro-5-fluoro-6-(7-fluoro-1H-indol-6-yl)pyridine-2-carboxylate]
% visual injury, Obs [1, 15]: 45% | % visual injury, Obs [1, 16]: 45% | % visual injury, Obs [1, 17]: 45% | % visual injury, Obs [1, 18]: 45% | % visual injury, Obs [2, 15]: 85% | % visual injury, Obs [2, 16]: 90% | % visual injury, Obs [2, 17]: 85% | % visual injury, Obs [2, 18]: 90% | % visual injury, Obs [3, 15]: 70% | % visual injury, Obs [3, 16]: 55% | % visual injury, Obs [3, 17]: 70% | % visual injury, Obs [3, 18]: 55% | % visual injury, Obs ([4]; Compound B 7.5 g ae/ha alone): 10% | % visual injury, Obs ([4]; Compound B 10 g ae/ha alone): 40% | % visual injury, Obs [5, 15]: 73% | % visual injury, Obs [5, 16]: 80% | % visual injury, Obs [5, 17]: 73% | % visual injury, Obs [5, 18]: 80% | % visual injury, Obs [6, 15]: 68% | % visual injury, Obs [6, 16]: 85% | % visual injury, Obs [6, 17]: 68% | % visual injury, Obs [6, 18]: 85% | % visual injury, Obs (Kochia scoparia (kochia); [15]): 68% | % visual injury, Obs (Kochia scoparia (kochia); [16]): 80% | % visual injury, Obs (Kochia scoparia (kochia); [17]): 68% | % visual injury, Obs (Kochia scoparia (kochia); [18]): 80% | % visual injury, Obs ([7]; Compound B 7.5 g ae/ha alone): 68% | % visual injury, Obs ([7]; Compound B 10 g ae/ha alone): 68%

O=C(O)CNCP(=O)(O)O [Glyphosate, N-(phosphonomethyl)glycine]
% visual injury [1, 19]: 38% | % visual injury, Obs [1, 20]: 83% | % visual injury, Obs [1, 21]: 40% | % visual injury [2, 19]: 53% | % visual injury, Obs [2, 20]: 75% | % visual injury, Obs [2, 21]: 8% | % visual injury [8, 19]: 10% | % visual injury, Obs [8, 20]: 53% | % visual injury [9, 19]: 50% | % visual injury, Obs [9, 20]: 30% | % visual injury [10, 19]: 90% | % visual injury, Obs [10, 20]: 90% | % visual injury, Obs [3, 21]: 30% | % visual injury [5, 19]: 65% | % visual injury, Obs [5, 20]: 38% | % visual injury, Obs [5, 21]: 20% | % visual injury [11, 19]: 60% | % visual injury, Obs [11, 20]: 75% | % visual injury [12, 19]: 83% | % visual injury, Obs [12, 20]: 80% | % visual injury, Obs [6, 21]: 0% | % visual injury (Kochia scoparia (kochia); [19]): 0% | % visual injury, Obs (Kochia scoparia (kochia); [20]): 38% | % visual injury, Obs (Kochia scoparia (kochia); [21]): 3% | % visual injury [13, 19]: 100% | % visual injury, Obs [13, 20]: 100% | % visual injury [14, 19]: 68% | % visual injury, Obs [14, 20]: 35%

Reference: patent US20210400967A1, “COMPOSITIONS COMPRISING PYRIDINE CARBOXYLATE HERBICIDES WITH GLYPHOSATE OR GLUFOSINATE” (Corteva Agriscience LLC, priority 2018, published 2021)
